Measured values from patent US20250161290A1, “CO-CRYSTALS” (CereSpir Incorporated, priority 2021, published 2025).
Converted amounts (≈) assume the structure as drawn.

Columns and labels:
[1] = Coformer and CSP-1103 aqueous solubility assessment (qualitative); format: physicochemical; conditions: water, thermodynamic from solid, 0.05 M aqueous concentration, gentle heating at 45° C. for 1 minute
Experimental: In a 1-dram vial, enough solvent was added to achieve a 0.05 M aqueous concentration along with some gentle heating at 45° C. for 1 minute to determine if the material would completely dissolve. After 24 hours, observations were made to determine if the material had remained in solution.

[2] = Coformer solubility assessment in organic solvents (qualitative); format: physicochemical; conditions: gentle heating 45° C. if required; for solubility: organic solvent or mixture, thermodynamic from solid
Experimental: Coformer solubility assessment was then performed. The following solvents were selected under these solvent classifications, which represent typical manufacturing solvents and have good solvent-solvent miscibility: • 1. Aprotic Polar: acetone, ethyl acetate, acetonitrile; • 2. Hydrogen Bond Donor: ethanol, methanol; and • 3. Electron Pair Donor: MTBE instead of diethyl ether.
Approximately 0.1 mmol of the coformer was weighed out into a 1-dram vial, enough solvent was added to achieve a 0.2 M concentration, and if required, gentle heating was applied at 45° C. for about 1 minute. […] After 65 hours, observations were made to determine if the coformers had remained in solution.

[3] = Dynamic Vapor Sorption (DVS) water sorption/desorption; format: physicochemical
Experimental: (§1) Samples are analyzed using a TA Instruments Q5000SA gravimetric water sorption analyzer. The relative humidity (RH) is adjusted in 10% RH increments between 5-95% (±1% RH) at 25° C. (±0.5%° C.). The mass of a sample is continuously monitored and recorded with respect to RH and time with criteria for mass equilibrium set as a percent mass change <0.0100 for 5 minutes with a time limit of 720 minutes per step. The humidity is controlled by mixing dry and wet nitrogen streams with a total flow rate of 200 mL/min. The instrument control and data analysis are operated under Advantage for Q Series and Universal Analysis software, respectively.

[4] = XRPD of pre-exposed and post-exposed DVS samples (solid form stability); format: physicochemical; conditions: two DVS sorption/desorption cycles, 5-95% RH, 25° C.
Experimental: X-ray powder diffraction analyses are obtained using a BRUKER D8 ADVANCE equipped with a Cu radiation source operated at 40 kV and 40 mA (λ=1.54 Å after Ni filtering) configured in a Bragg-Brentano geometry, equipped with a 90-position AUTO-CHANGER and a silicon strip detector (SSD160-2). A coupled theta-two theta continuous PSD (Position Sensitive Device) fast scan from 4 to 40 degrees are collected over approximately 32 minutes (0.5 sec/0.01° step). A sample is placed onto a polished zero-background silicon wafer by gently distributing onto the flat surface and is analyzed as a flat plate specimen.
as §1

[5] = Consolidated qualitative solubility results (Tables 6 and 8); conditions: for consolidated solubility result: Table 6; for qualitative solvent solubility overlaid with cocrystallization screens' results: Table 8, numbers are molar concentrations pending investigation
[6] = MTBE, organic solvent or mixture
[7] = ethyl acetate, organic solvent or mixture
[8] = acetonitrile, organic solvent or mixture
[9] = ethanol, organic solvent or mixture

Compound | solubility [1] | solubility ([2]; acetone) | solubility ([2]; acetonitrile) | solubility ([2]; ethanol) | solubility ([2]; ethyl acetate) | solubility ([2]; methanol) | consolidated solubility result ([5]; acetone) | qualitative solvent solubility overlaid with cocrystallization screens' results ([5]; acetonitrile (BP 82° C.)) | consolidated solubility result ([5]; acetonitrile) | consolidated solubility result ([5]; ethanol) | consolidated solubility result ([5]; ethyl acetate) | qualitative solvent solubility overlaid with cocrystallization screens' results ([5]; methanol (BP 65° C.)) | consolidated solubility result ([5]; methanol) | qualitative solvent solubility overlaid with cocrystallization screens' results ([5]; water (BP 100° C.)) | consolidated solubility result ([5]; water) | solubility (physchem; [6]) | solubility (physchem; [7]) | solubility (physchem; [8]) | solubility (physchem; [9]) | qualitative solvent solubility overlaid with cocrystallization screens' results ([5]; acetone (BP 56° C.)) | other results
NC(=O)c1cccnc1 [nicotinamide] | > 50 mM | > 200 mM | > 100 mM | > 200 mM | > 50 mM | > 200 mM | ✓ | ✓ | ✓ | ✓ | ✓ | ✓ | ✓ | ✓ | ✓ | < 50 mM | 50 mM (≈ 6.11 mg/mL) |  |  |  | Mass Change, Adsorption ([3]; DVS cycle 1 of 2, RH 5 to 95%): 1.11%; Mass Change, Desorption ([3]; DVS cycle 1 of 2, RH 95 to 5%): −1.11%; Mass Change, Adsorption ([3]; DVS cycle 2 of 2, RH 5 to 95%): 1.18%; Mass Change, Desorption ([3]; DVS cycle 2 of 2, RH 95 to 5%): −1.18%; solid form change after DVS exposure (XRPD pre- vs post-exposed) [4]: no solid state form changes
N[C@@H](Cc1ccccc1)C(=O)O [phenylalanine] | > 50 mM |  |  |  |  |  |  |  |  |  |  |  |  | ✓ | ✓ | < 50 mM | < 50 mM | < 50 mM | < 50 mM |  | solubility (physchem; acetone, organic solvent or mixture): < 50 mM; solubility (physchem; methanol, organic solvent or mixture): < 50 mM
O=C(O)/C=C/c1ccc(O)c(O)c1 [caffeic acid] | < 50 mM | > 100 mM |  | > 200 mM |  | > 200 mM | ✓ |  |  | ✓ |  | ✓ | ✓ |  |  | < 50 mM | < 50 mM | < 50 mM |  | ✓ | solubility ([2]; MTBE): < 50 mM; qualitative solvent solubility overlaid with cocrystallization screens' results ([5]; ethanol (BP 79° C.)): ✓; solubility (physchem; water): < 50 mM
COc1cc(C=O)ccc1O [vanillin] | > 50 mM | > 200 mM | > 200 mM | > 200 mM | > 200 mM | > 200 mM | ✓ | ✓ | ✓ | ✓ | ✓ | ✓ | ✓ | ✓ | ✓ |  | 200 mM (≈ 30.4 mg/mL) |  |  | ✓ | solubility ([2]; MTBE): > 200 mM; qualitative solvent solubility overlaid with cocrystallization screens' results ([5]; MTBE (BP 55° C.)): ✓; consolidated solubility result ([5]; MTBE): ✓; qualitative solvent solubility overlaid with cocrystallization screens' results ([5]; ethanol (BP 79° C.)): ✓
O=C1NS(=O)(=O)c2ccccc21 [saccharin] | < 50 mM | > 200 mM | > 200 mM | > 100 mM | > 200 mM | > 200 mM | ✓ | ✓ | ✓ | ✓ | ✓ | ✓ | ✓ |  |  |  | 200 mM (≈ 36.6 mg/mL) |  | 100 mM (≈ 18.3 mg/mL) | ✓ | qualitative solubility at 0.05 M ([2]; MTBE): Y✓; qualitative solvent solubility overlaid with cocrystallization screens' results ([5]; MTBE (BP 55° C.)): ✓; consolidated solubility result ([5]; MTBE): ✓; solubility (physchem; water): < 50 mM
